Experimental data from ChEMBL document CHEMBL1201862, “PubChem BioAssay data set” (2004).
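Five compound concentrations were applied to cells in 96-well plates for 48 hours; endpoints were derived by simple linear interpolation of the resulting dose-response curve. GI50 marks 50% less growth.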 Activity calls are given as the source filed them. Rule as the data show it: active = GI50 up to about 1.1 µM and inactive = higher.

Experiments:
Test in all cases: NCI-60 cell line screen, 48 h
786-0 = system: 786-0
NCI-H460 = system: NCI-H460
SK-OV-3 = system: SK-OV-3
HCC 2998 = system: HCC 2998
DU-145 = system: DU-145
SR = system: SR
A549 = system: A549
SK-MEL-2 = system: SK-MEL-2
PC-3 = system: PC-3
COLO 205 = system: COLO 205
MCF7 = system: MCF7
HCT-116 = system: HCT-116
MDA-MB-231 = system: MDA-MB-231
MDA-MB-435 = system: MDA-MB-435
ACHN = system: ACHN
A498 = system: A498
SK-MEL-5 = system: SK-MEL-5
HOP-92 = system: HOP-92
CAKI-1 = system: CAKI-1
NCI-H23 = system: NCI-H23
UACC-62 = system: UACC-62
SF-295 = system: SF-295
U-251 = system: U-251
SK-MEL-28 = system: SK-MEL-28
OVCAR-5 = system: OVCAR-5
MDA-N = system: MDA-N
OVCAR-8 = system: OVCAR-8
K562 = system: K562
KM12 = system: KM12
NCI/ADR-RES = system: NCI/ADR-RES
CCRF-CEM = system: CCRF-CEM
SW-620 = system: SW-620
HOP-62 = system: HOP-62
NCI-H522 = system: NCI-H522
OVCAR-3 = system: OVCAR-3
Malme-3M = system: Malme-3M
BT-549 = system: BT-549
MOLT-4 = system: MOLT-4
UO-31 = system: UO-31
Hs-578T = system: Hs-578T
HT-29 = system: HT-29
RXF 393 = system: RXF 393
HCT-15 = system: HCT-15
UACC-257 = system: UACC-257
OVCAR-4 = system: OVCAR-4
RPMI-8226 = system: RPMI-8226
SNB-19 = system: SNB-19
IGROV-1 = system: IGROV-1
EKVX = system: EKVX
M14 = system: M14
SF-539 = system: SF-539
LOX IMVI = system: LOX IMVI
SN12C = system: SN12C
SNB-75 = system: SNB-75
T47D = system: T47D
TK-10 = system: TK-10
NCI-H226 = system: NCI-H226
HL-60 = system: HL-60
SF-268 = system: SF-268

## C/C=C\C(CC(=O)NCCC1CN(S(=O)(=O)C(F)(F)F)c2ccccc21)CC(=O)OC (stereo not drawn)
786-0
  GI50: 34.2 µM (inactive)
NCI-H460
  GI50: 35.6 µM (inactive)
SK-OV-3
  GI50: 64.3 µM (inactive)
HCC 2998
  GI50: 53.3 µM (inactive)
DU-145
  GI50: > 100 µM (inactive)
SR
  GI50: > 100 µM (inactive)
A549
  GI50: 45.8 µM (inactive)
SK-MEL-2
  GI50: 32.1 µM (inactive)
PC-3
  GI50: 35.4 µM (inactive)
COLO 205
  GI50: 24.8 µM (inactive)
MCF7
  GI50: 49.9 µM (inactive)
HCT-116
  GI50: 31.3 µM (inactive)
MDA-MB-231
  GI50: 50.8 µM (inactive)
MDA-MB-435
  GI50: > 10 µM (inactive)
ACHN
  GI50: 37.6 µM (inactive)
A498
  GI50: 62.8 µM (inactive)
SK-MEL-5
  GI50: 16.9 µM (inactive)
HOP-92
  GI50: 23.9 µM (inactive)
CAKI-1
  GI50: 56.6 µM (inactive)
NCI-H23
  GI50: 34.7 µM (inactive)
UACC-62
  GI50: 34.1 µM (inactive)
SF-295
  GI50: 42.4 µM (inactive)
U-251
  GI50: 59.3 µM (inactive)
SK-MEL-28
  GI50: 43.3 µM (inactive)
OVCAR-5
  GI50: 58.6 µM (inactive)
MDA-N
  GI50: 40 µM (inactive)
OVCAR-8
  GI50: 38.8 µM (inactive)
K562
  GI50: 51.8 µM (inactive)
KM12
  GI50: 26.9 µM (inactive)
NCI/ADR-RES
  GI50: 29.6 µM (inactive)
CCRF-CEM
  GI50: 26.6 µM (inactive)
SW-620
  GI50: 55.8 µM (inactive)
HOP-62
  GI50: 35.2 µM (inactive)
NCI-H522
  GI50: 18.3 µM (inactive)
OVCAR-3
  GI50: 38.3 µM (inactive)
Malme-3M
  GI50: 15.9 µM (inactive)
BT-549
  GI50: 27.4 µM (inactive)
MOLT-4
  GI50: 29.6 µM (inactive)
UO-31
  GI50: 35.3 µM (inactive)
Hs-578T
  GI50: 22.6 µM (inactive)
HT-29
  GI50: 21.8 µM (inactive)
RXF 393
  GI50: 36.3 µM (inactive)
HCT-15
  GI50: 42.8 µM
UACC-257
  GI50: 48.2 µM (inactive)
OVCAR-4
  GI50: 63.5 µM (inactive)
RPMI-8226
  GI50: 31.8 µM (inactive)
SNB-19
  GI50: 44.7 µM (inactive)
IGROV-1
  GI50: 50 µM (inactive)
EKVX
  GI50: 37.4 µM (inactive)
M14
  GI50: 36.5 µM (inactive)

## CCOC(=O)CCCOc1cc(-c2ccccc2F)nc2cc3c(cc12)OCO3
SF-539
  GI50: > 100 µM (inactive)
786-0
  GI50: > 100 µM (inactive)
SK-OV-3
  GI50: > 100 µM (inactive)
HCC 2998
  GI50: 5.82 µM (inactive)
DU-145
  GI50: > 100 µM (inactive)
SR
  GI50: 32 µM (inactive)
A549
  GI50: > 100 µM (inactive)
SK-MEL-2
  GI50: > 100 µM (inactive)
PC-3
  GI50: 29.6 µM (inactive)
COLO 205
  GI50: > 100 µM (inactive)
MCF7
  GI50: > 100 µM (inactive)
MDA-MB-231
  GI50: > 100 µM (inactive)
MDA-MB-435
  GI50: 53.6 µM (inactive)
SK-MEL-5
  GI50: 57.7 µM (inactive)
LOX IMVI
  GI50: > 100 µM (inactive)
HOP-92
  GI50: > 100 µM (inactive)
CAKI-1
  GI50: > 100 µM (inactive)
NCI-H23
  GI50: 46.6 µM (inactive)
UACC-62
  GI50: 84.9 µM (inactive)
U-251
  GI50: 95.9 µM (inactive)
SK-MEL-28
  GI50: 73.5 µM (inactive)
OVCAR-5
  GI50: > 100 µM (inactive)
MDA-N
  GI50: 88.7 µM (inactive)
OVCAR-8
  GI50: > 100 µM (inactive)
KM12
  GI50: 61.9 µM (inactive)
NCI/ADR-RES
  GI50: 46.8 µM (inactive)
CCRF-CEM
  GI50: 30.8 µM (inactive)
SW-620
  GI50: > 100 µM (inactive)
HOP-62
  GI50: > 100 µM (inactive)
SN12C
  GI50: > 100 µM (inactive)
SNB-75
  GI50: 40.9 µM (inactive)
Malme-3M
  GI50: 74.1 µM (inactive)
BT-549
  GI50: 19.9 µM (inactive)
MOLT-4
  GI50: 27.3 µM (inactive)
T47D
  GI50: 25.5 µM (inactive)
HT-29
  GI50: 43.7 µM (inactive)
HCT-15
  GI50: 3.29 µM
UACC-257
  GI50: 70.3 µM (inactive)
TK-10
  GI50: > 100 µM (inactive)
OVCAR-4
  GI50: 3.71 µM (inactive)
RPMI-8226
  GI50: 28.4 µM (inactive)
IGROV-1
  GI50: 24.6 µM (inactive)
EKVX
  GI50: 40.6 µM (inactive)
M14
  GI50: 53 µM (inactive)

## O=[N+]([O-])c1ncc(N(CCO)CCO)s1
SF-539
  GI50: 14.4 µM (inactive)
786-0
  GI50: 34 µM (inactive)
NCI-H460
  GI50: 61.2 µM (inactive)
NCI-H226
  GI50: > 100 µM (inactive)
SK-OV-3
  GI50: > 100 µM (inactive)
HCC 2998
  GI50: 47 µM (inactive)
DU-145
  GI50: 65.9 µM (inactive)
SR
  GI50: 43.8 µM (inactive)
SK-MEL-2
  GI50: 21.6 µM (inactive)
PC-3
  GI50: 41.3 µM (inactive)
COLO 205
  GI50: 21.9 µM (inactive)
MCF7
  GI50: 37 µM (inactive)
HCT-116
  GI50: 37.1 µM (inactive)
HL-60
  GI50: 17.7 µM (inactive)
MDA-MB-231
  GI50: 67.8 µM (inactive)
MDA-MB-435
  GI50: 34.8 µM (inactive)
ACHN
  GI50: 37.7 µM (inactive)
A498
  GI50: 65.5 µM (inactive)
LOX IMVI
  GI50: 15.6 µM (inactive)
CAKI-1
  GI50: > 100 µM (inactive)
NCI-H23
  GI50: 41 µM (inactive)
UACC-62
  GI50: 19.8 µM (inactive)
SF-295
  GI50: > 100 µM (inactive)
U-251
  GI50: 45.3 µM (inactive)
SK-MEL-28
  GI50: 16.4 µM (inactive)
OVCAR-5
  GI50: 78.5 µM (inactive)
MDA-N
  GI50: 30.3 µM (inactive)
OVCAR-8
  GI50: 53.5 µM (inactive)
K562
  GI50: 20.8 µM (inactive)
SF-268
  GI50: 40.3 µM (inactive)
KM12
  GI50: > 100 µM (inactive)
CCRF-CEM
  GI50: 22.8 µM (inactive)
SW-620
  GI50: 33.3 µM (inactive)
HOP-62
  GI50: 42.9 µM (inactive)
SN12C
  GI50: 41.4 µM (inactive)
NCI-H522
  GI50: 16.4 µM (inactive)
SNB-75
  GI50: 30.8 µM (inactive)
OVCAR-3
  GI50: 65.6 µM (inactive)
Malme-3M
  GI50: 18.2 µM (inactive)
BT-549
  GI50: 26.5 µM (inactive)
MOLT-4
  GI50: 36.6 µM (inactive)
UO-31
  GI50: 43.1 µM (inactive)
Hs-578T
  GI50: 32.1 µM (inactive)
T47D
  GI50: 27.5 µM (inactive)
HT-29
  GI50: 49.7 µM (inactive)
RXF 393
  GI50: 16.7 µM (inactive)
HCT-15
  GI50: 33.3 µM
UACC-257
  GI50: 25 µM (inactive)
TK-10
  GI50: 34.9 µM (inactive)
OVCAR-4
  GI50: > 100 µM (inactive)
RPMI-8226
  GI50: 19.5 µM (inactive)
SNB-19
  GI50: > 100 µM (inactive)
EKVX
  GI50: > 100 µM (inactive)
M14
  GI50: 34.8 µM (inactive)
